Measurements from PMC7906020, “Trp-Containing Antibacterial Peptides Impair Quorum Sensing and Biofilm Development in Multidrug-Resistant Pseudomonas aeruginosa and Exhibit Synergistic Effects With Antibiotics” (Frontiers in Microbiology, 2021).
Values after ≈ are worked out from the molar mass of the structure shown. Peptide text beside a SMILES is read from it.

Assays:
[1] = system: pyocyanin production in MRPA0108; assay: Pyocyanin production assay; format: cell-based, Pseudomonas aeruginosa; conditions: peptide at 1/4 × MIC, 24 h; OD 520 nm; vs untreated control; triplicate
Procedure: The culture supernatant was obtained after centrifugation at 12,000×g for 10 min. (1) LasB elastase activity was measured using elastin-Congo red (ECR) as the substrate, as described by [Pattnaik et al. (2018)]. Briefly, 100 μl of the culture supernatant was added to 900 μl of ECR buffer (100 mM Tris-HCl, 1 mM CaCl2, pH 7.5) containing 10 mg of ECR and then incubated with shaking at 37°C for 18 h. Then, 100 μl of 0.12 M EDTA was added to stop the reaction. The insoluble ECR was removed by centrifugation, and the supernatant absorbance was measured at 495 nm. The optical density (OD) 495 nm/OD 600 nm represents the elastase activity. (2) LasA protease activity was measured as follows ([Pattnaik et al., 2018]): first, the culture supernatant was filtered to remove the bacterial cells, and then 150 μl of sterile-filtered supernatant was added to 2% azocasein (prepared in 50 mM Tris-HCl) and incubated for 4 h at 37°C. […] After centrifugation at 10,000 rpm for 10 min, 1 M NaOH was added to the supernatant, and the relative protease activity was measured at OD 440 nm. (3) The pyocyanin assay was based on the absorbance of excreted pyocyanin at 520 nm in an acidic solution ([Kong et al., 2005]). […] The OD 520 nm was measured to evaluate the change in pyocyanin content. […] The absorbance was measured at 420 nm. (5) The level of C4-HSL was quantified by GC-MS as previously described ([Guo et al., 2012]).

[2] = system: MRPA0108 biofilm formation; format: cell-based, Pseudomonas aeruginosa; conditions: peptide at 1 × MIC, 24 h, 37°C; crystal violet OD 590 nm; vs control
Procedure: The biofilm formation of the MRPA0108 strain was assessed as described previously ([Shang et al., 2017]). Briefly, 50 μl of a mid-log growth-phase bacterial solution (1 × 10^5 CFU/ml) was placed into a 96-well microtiter plate and incubated overnight with 50 μl of peptide at a final concentration of 1/8 × MIC, 1/4 × MIC, 1/2 × MIC, or 1 × MIC. LB liquid medium and erythromycin were used as negative and positive controls, respectively. After 24 h of incubation at 37°C, planktonic bacteria were carefully removed, and the biofilms were fixed with formaldehyde for 15 min and stained with 0.1% (w/v) crystal violet (CV) dye for 5 min. Before being quantified by reading the absorbance at 590 nm in a microtiter plate reader (Varioskan Flash Microplate Reader, Thermo Fisher Scientific Co., Beijing), biofilms were washed and solubilized with 95% ethanol. The OD 590 nm was determined as a measure of biofilm biomass.

[3] = system: β-lactamase activity in MRPA0108 cells; assay: β-Lactamase activity assay (nitrocefin kit) in treated cells; format: cell-based, Pseudomonas aeruginosa; conditions: compared to control
Procedure: β-lactamase activity was measured by using a β-lactamase assay kit (YIASEN Biotech Co., Ltd., Shanghai, China) according to the manufacturer’s instructions. Briefly, mid-log growth-phase bacteria were diluted to 1 × 10^8 CFU/ml and treated with I1W or L12W at concentrations ranging from 3.13 to 50 μM for 12 h at 37°C. After induction, the cultures were harvested by centrifugation at 5,000 rpm at 4°C, washed three times with PBS buffer (pH 7.2), and then resuspended in the same buffer. The cells were sonicated on ice for 15 min, and the cell lysates containing β-lactamase were collected by centrifugation at 12,000 rpm for 30 min at 4°C. Fifty microliters of the prepared β-lactamase-containing lysates was mixed with 50 μl of assay buffer containing nitrocefin and reacted at room temperature in a dark environment for 20 min. Nitrocefin hydrolysis was measured spectrophotometrically at 490 nm. Concurrently, the total protein content was determined with a Bradford assay using the same supernatant. One milliunit of β-lactamase is defined as 1 nanomole of nitrocefin hydrolyzed per minute per microgram of protein.

MRPA0108 cells = assay: Intracellular antibiotic assay by HPLC; format: cell-based, Pseudomonas aeruginosa; conditions: RP-HPLC of cell lysate
Procedure: Mid-log growth-phase bacteria were diluted to 1 × 10^8 CFU/ml and treated with I1W or L12W at concentrations ranging from 3.13 to 50 μM for 12 h at 37°C. After induction, the cultures were harvested by centrifugation at 12,000 rpm for 2 min, washed three times with PBS buffer (pH 7.2), and then incubated with lysozyme (20 mg/ml) at 37°C for 1 h in a water bath. After centrifugation at 12,000 rpm for 5 min, the supernatant of the cell lysates was collected, added to methanol (1:3) and vortexed to precipitate proteins. After recentrifugation at 12,000 rpm for 5 min, the supernatant was measured by using HPLC with a mobile phase of 0.1% trifluoroacetic acid/methanol (92:8, v/v) and a flow rate of 0.7 ml/min.

MRPA0108 strain = conditions: previous study, ref Han et al., 2020; cited from earlier work
Description: Supplement Table_1.docx, table 1: Table S1 Biological characteristics and antibacterial activities of the Trp-containing antimicrobial peptides (32) | column: MIC(μM)

[4] = range over peptide 3.13 to 50 μM, 12 h 37°C

Structure (SMILES): CC[C@H](C)[C@H](NC(=O)[C@H](CCCCN)NC(=O)[C@H](CO)NC(=O)[C@H](CC(C)C)NC(=O)[C@@H](NC(=O)[C@H](CCCCN)NC(=O)[C@H](CCCCN)NC(=O)[C@@H](N)Cc1c[nH]c2ccccc12)[C@@H](C)CC)C(=O)N[C@@H](CCCCN)C(=O)N[C@@H](CCCCN)C(=O)N[C@@H](CC(C)C)C(=O)N[C@@H](CC(C)C)C(=O)N[C@@H](CCCCN)C(N)=O [I1W] (H-WKKILSKIKKLLK-NH2; N-terminus and C-terminus assumed)
- reduction of pyocyanin production [1]: 73.7%
- reduction of biofilm formation [2]: 53%
- effect on β-lactamase activity, peptide alone ([3]; peptide alone at concentrations greater than 12.5 μM): reduced β-lactamase activity
- effect on β-lactamase activity, peptide alone ([3]; peptide alone at low concentrations): no effect on β-lactamase activity
- increase of ceftazidime content in MRPA0108 cells (MRPA0108 cells; peptide at its MIC): 19%
- increase of levofloxacin content in MRPA0108 cells (MRPA0108 cells; peptide at its MIC): 1%
- increase of piperacillin content in MRPA0108 cells (MRPA0108 cells; peptide at its MIC): 17%
- increase of ceftazidime content in MRPA0108 cells (MRPA0108 cells; [4]): 7.5-100%
- increase of levofloxacin content in MRPA0108 cells (MRPA0108 cells; [4]): 0.01–22%
- increase of piperacillin content in MRPA0108 cells (MRPA0108 cells; [4]): 8–80%
- MIC (MRPA0108 strain): 6.25 µM (≈ 10.2 µg/mL)
